The text below walks through data of publication PMC3662833 (Journal of molecular biology, 2011).

The subject of one data set is Unmodified ASL^Lys3UUU. As to the kind of experiment: FITC-peptide fluorescence quenching titration with ASL. Format: binding, human. Conditions: in words; for interaction with unmodified ASL^Lys3UUU: FITC-peptide fluorescence quenching.
The conditions of data set [1]: in words.
The nature of the next data set: Peptide structure by CD. Conditions: in words. Type of data set: physicochemical.
For another data set, the system named is ASL^Val3UAC-m^6A37. As to the kind of experiment: FITC-peptide fluorescence quenching titration with ASL. Format: binding, E. coli. Conditions: in words.
The subject of another data set is unmodified hASL^Lys3UUU. As to the kind of experiment: ESI-MS complex formation. Type of data set: binding, human. Conditions: preliminary, data not shown, in words.
In another data set the test system is E. coli ASL^Val3UAC. As to the kind of experiment: ESI-MS complex formation. Type of data set: binding. Conditions: peptide in five-fold excess, preliminary, data not shown.

As to PHRQCSAPAKSCKILP [Peptide P17], the “interaction with unmodified ASL^Lys3UUU” value with Unmodified ASL^Lys3UUU is “little to no interaction”.
Regarding HRGYCRDRWNCGEYF [Peptide P15], the solubility entry in data set [1] is given as “lacked the solubility required of the assay”.
Consider RVTHHAFLGAHRTVG [Peptide P6], for which the “interaction with unmodified ASL^Lys3UUU” value with Unmodified ASL^Lys3UUU was “little to no interaction”. The “structure as determined by CD” value in the data set “Peptide structure by CD” is given as “lack of structure”. Further, in the data set on ASL^Val3UAC-m^6A37, the “binding of ASL^Val3UAC-m^6A37” value was “did not bind”. Moreover, the “RNA bound by P6” value in the data set on unmodified hASL^Lys3UUU is “small amounts”. Moreover, the “RNA in complex with P6” value in the data set with E. coli ASL^Val3UAC stood at 50%.
“AGPVPLHSLSYYYNQ [Peptide P31, reference compound]”: the “RNA binding (control peptide)” value in the data set with Unmodified ASL^Lys3UUU (control used as a baseline, ASL not specified, data not shown) is “non-RNA binding”.
